Values of other authors in patent US5872104A, “Combinations and methods for reducing antimicrobial resistance” (Oridigm Corporation, priority 1994, dated 1999).
In brackets after ≈: the same amount, converted by molar mass. Where a name gives a salt, the structure may show the parent alone. Read-outs that look alike come from different tables or passages of the source.

Tests used:
Staphylococcus aureus = settings: cited from earlier work
Ureaplasma urealyticum = settings: cited from earlier work
Mycoplasma hominis = settings: cited from earlier work
Mycoplasma pneumoniae = settings: cited from earlier work
SAM synthetase [1] = settings: cited from earlier work
arginine decarboxylase = settings: cited from earlier work
adenosine deaminase = settings: cited from earlier work
Trypanosomiasis = settings: cited from earlier work
[2] = system: ornithine decarboxylase (ODC); settings: cited from earlier work
[3] = system: E. coli glutathione synthetase; settings: cited from earlier work
glutathione = settings: ip.; 4.5 mmol/kg buthionine sulfoximine and […] diethyl maleate; cited from earlier work
[4] = system: RNA synthesis in Hela cells; settings: cited from earlier work
[5] = system: S-Adenosylmethionine Decarboxylase (SAM-DC); settings: cited from earlier work
[6] = system: tRNA methylases isolated from E. coli; settings: cited from earlier work
SAH in hepatocytes = settings: cited from earlier work
bovine liver SAHH = settings: 0.2 mM; cited from earlier work
GSH = settings: cited from earlier work; for depletion of GSH: 0.2 mg/kg; for reduction of GSH levels: 0.2 mmol/kg (S) and 0.4 mmol/kg (S,R), liver, kidney and pancreas
[7] = system: 28S rRNA, 18S rRNA and tRNA; settings: NPA 10 μM; c^3 -NPA 10 μM; c^3 -Ari 100 μM; cited from earlier work
SAHH hydrolase = settings: cited from earlier work
Dictyostelium discoideum = settings: 5 mM, four hours; cited from earlier work
[8] = system: mature rRNA in Novikoff hepatoma cells; settings: cited from earlier work
rRNA of S. cerevisiae = settings: cited from earlier work
L1210 cells = settings: absence of polyamine depletion; cited from earlier work
SAM synthetase [9] = settings: cited from earlier work; remark: listed apart in the source
[10] = system: tumor-derived methionine adenosyltransferases; settings: cited from earlier work
RNA methylation = settings: cited from earlier work
tRNA methylases = settings: cited from earlier work
[11] = system: methylation reactions in peripheral blood monocytes; settings: cited from earlier work
lysosomal ADA = settings: 0.2 mM; cited from earlier work

**Q.** For `CCC[C@@H]1C[C@@H](C(=O)N[C@@H]([C@H]2O[C@H](SC)[C@H](O)[C@@H](O)[C@H]2O)[C@@H](C)O)N(C)C1` [Lincomycin], which MIC50 (Staphylococcus aureus) is on record?
**A.** 1 mg/L (≈ 2.46 µM)

**Q.** What about the MIC90 (Staphylococcus aureus) of the same compound?
**A.** 1 mg/L (≈ 2.46 µM)

**Q.** And the Range (Staphylococcus aureus)?
**A.** 0.5-512

**Q.** What about the MIC50 (Ureaplasma urealyticum) of the same compound?
**A.** ≥ 128 mg/L

**Q.** And the MIC90 (Ureaplasma urealyticum)?
**A.** ≥ 128 mg/L

**Q.** And the MIC50 (Mycoplasma hominis)?
**A.** 2 mg/L (≈ 4.92 µM)

**Q.** What about the MIC90 (Mycoplasma hominis) of the same compound?
**A.** 4 mg/L (≈ 9.84 µM)

**Q.** And the Range (Mycoplasma hominis)?
**A.** 0.5-16

**Q.** And the MIC50 (Mycoplasma pneumoniae)?
**A.** 8 mg/L (≈ 19.7 µM)

**Q.** What about the MIC90 (Mycoplasma pneumoniae) of the same compound?
**A.** 32 mg/L (≈ 78.7 µM)

**Q.** What about the Range (Mycoplasma pneumoniae) of the same compound?
**A.** 2-32

**Q.** With `Nc1ncnc2c1ncn2[C@@H]1O[C@H](COP(=O)(O)NP(=O)(O)OP(=O)(O)O)[C@@H](O)[C@H]1O` [AMPNPP] as the compound, how does the “effectiveness, fold versus AMPCPP” value (SAM synthetase [1]) read?
**A.** about 1000 fold

**Q.** What about the “inhibition constant, fold less than the Km of ATP” value (SAM synthetase [1]) of the same compound?
**A.** 60 fold

**Q.** What about the “substrate and inhibitor of SAM synthetase” value (SAM synthetase [1]) of the same compound?
**A.** both a substrate for SAM synthetase and a potent inhibitor

**Q.** What does the source list for `N=C(N)NCCCC(N)(C(=O)O)C(F)F` (racemic) [DFMA, difluoromethylarginine]?
**A.** arginine decarboxylase inhibition (arginine decarboxylase): irreversible inhibitor of ADC; arginine decarboxylase inhibition (arginine decarboxylase; listed as DL-α-(difluoromethyl)arginine): potent and irreversible inhibitor of bacterial ADC

**Q.** Which ADA inhibition (adenosine deaminase) does the source give for `OCC1NC=Nc2c1ncn2[C@@H]1O[C@H](CO)[C@@H](O)[C@H]1O` (stereo partly shown) [1,6-dihydro-6-hydroxy-methylpurine nucleoside] here?
**A.** inhibitors of ADA

**Q.** Which clinical effectiveness (Trypanosomiasis; different dosage levels and modes of treatment) does the source give for `NCCCC(N)(C(=O)O)C(F)F` (stereo not shown) [DFMO, difluoromethylornithine] here?
**A.** effective against Trypanosomiasis

**Q.** What about the safety (Trypanosomiasis; human, in vivo) of the same compound?
**A.** safe and well tolerated and the side effects are reversible

**Q.** What about the ODC inhibition [2] of the same compound?
**A.** irreversible inhibitor of ornithine decarboxylase

**Q.** For `COC(=O)C(N)(C=CCN)CF` (racemic) [DL-α-monofluoromethyldehydroornithine methylester], which Ki [2] is on record?
**A.** 3 µM

**Q.** With `COc1cc(Cc2cnc(N)nc2N)cc(OC)c1OC` [trimethoprim] as the compound, how does the inhibition [3] read?
**A.** potently inhibited

**Q.** With `CCOC(=O)/C=C\C(=O)OCC` [diethyl maleate] as the compound, how does the depletion of glutathione (glutathione) read?
**A.** depleted liver and aortic glutathione

**Q.** With `Nc1ncnc2c1ncn2[C@@H]1O[C@H](CO)C[C@H]1O` [Cordycepin, 3'-deoxyadenosine] as the compound, how does the RNA synthesis ([4]; 200 μg/ml) read?
**A.** totally inhibits RNA synthesis

**Q.** And the “DNA and protein synthesis” value [4]?
**A.** not affected

**Q.** What about the “synthesis of mature rRNA, ribosomal precursor 45S RNA and tRNA” value [4] of the same compound?
**A.** inhibits the synthesis of mature rRNA, ribosomal precursor 45S RNA and tRNA

**Q.** And the “rRNA and tRNA syntheses” value ([4]; lower concentrations)?
**A.** selectively inhibited

**Q.** For `CN(C/C=C\CN)C[C@H]1O[C@@H](n2cnc3c(N)ncnc32)[C@H](O)[C@@H]1O` [AbeAdo, 5'-{[(Z)-4-amino-2-butenyl]methylamino}-5'-deoxyadenosine], which SAM-DC inhibition [5] is on record?
**A.** powerful irreversible inhibitors of SAM-DC

**Q.** Which “inhibition of E. coli tRNA methylases” value [6] does the source give for `Nc1ncnc2c1ncn2[C@@H]1O[C@H](CO)[C@@H](O)[C@H]1O` [adenosine] here?
**A.** inhibitory to tRNA methylases isolated from E. coli

**Q.** Which “inactivation of SAH” value (SAH in hepatocytes) does the source give for `Nc1ncnc2c1ncn2C[C@H](O)[C@@H](O)C(=O)O` [L-threo-eritadenine] here?
**A.** inactivate SAH in hepatocytes

**Q.** With `Nc1ncnc2c1nnn2[C@@H]1C[C@H](CO)[C@@H](O)[C@H]1O` [8-azaaristeromycin] as the compound, how does the inhibition (bovine liver SAHH) read?
**A.** 46%

**Q.** What does the source list for `CCCC[S@@](=N)(=O)CC[C@H](N)C(=O)O` [L-buthionine-(R)-sulfoximine]?
**A.** depletion of GSH (GSH; kidney): modest depletion in the kidney; depletion of GSH (GSH; liver or pancreas): did not show any significant depletion of GSH

**Q.** With `Nc1nccc2c1ncn2[C@@H]1C[C@H](CO)[C@@H](O)[C@H]1O` [c^3 -Ari, 3-deazaaristeromycin] as the compound, how does the “methylation of 28S rRNA, 18S rRNA and tRNA” value [7] read?
**A.** inhibit the methylation of 28S rRNA, 18S rRNA and tRNA

**Q.** And the “antiviral activity and cytotoxicity vs first generation” value (SAHH hydrolase)?
**A.** retained antiviral activity and considerably lower cytotoxicity than their parent first generation inhibitors

**Q.** And the inhibition (bovine liver SAHH)?
**A.** 97%

**Q.** Which “growth of D. discoideum” value (Dictyostelium discoideum) does the source give for `NCC(O)CN` [1,3-diaminopropan-2-ol] here?
**A.** arrested in four hours

**Q.** Which “inactivation of SAH” value (SAH in hepatocytes) does the source give for `Nc1ncnc2c1ncn2C[C@H](O)[C@H](O)C(=O)O` [L-eritadenine] here?
**A.** inactivate SAH in hepatocytes

**Q.** Which “formation of mature rRNA” value [8] does the source give for `Nc1nc2c(ncn2[C@@H]2O[C@H](CO)[C@@H](O)[C@H]2O)c(=S)[nH]1` [6-thioguanosine] here?
**A.** inhibit the formation of mature 28S and 18

**Q.** Which “formation of mature rRNA” value [8] does the source give for `N#Cc1cn([C@@H]2O[C@H](CO)[C@@H](O)[C@H]2O)c2ncnc(N)c12` [toyocamycin] here?
**A.** inhibit the formation of mature 28S and 18

**Q.** What about the “maturation of rRNA” value (rRNA of S. cerevisiae) of the same compound?
**A.** inhibit the maturation of rRNA

**Q.** With `NC1(C(=O)O)CC2CC1C2` (single isomer, unassigned; (+)) [(+)-2-aminobicyclo[2.1.1]hexane-2-carboxylic acid] as the compound, how does the IC50 (L1210 cells) read?
**A.** 5000 µM

**Q.** And the SAM synthetase inhibition (SAM synthetase [9])?
**A.** most effective

**Q.** And the inhibition [10]?
**A.** most effective

**Q.** Which inhibition (bovine liver SAHH) does the source give for `CNc1ncnc2c1ncn2[C@@H]1C[C@H](CO)[C@@H](O)[C@H]1O` [N^6 -methylaristeromycin] here?
**A.** 22%

**Q.** Which DNA methylation (RNA methylation) does the source give for `Nc1ncnc2c1ncn2[C@@H]1O[C@H](CO)[C@H](O)[C@H]1O` [xylosyladenine, 9-B-D-xylofuranosyladenine] here?
**A.** not inhibited

**Q.** And the “formation of methyluridine, 2'-O-methylcytidine, 5-methyluridine and 5-methylcytidine in RNA” value (RNA methylation)?
**A.** reduced

**Q.** What about the “inhibition of RNA methylation” value (RNA methylation) of the same compound?
**A.** marked inhibition of RNA methylation

**Q.** Which results are given for `Nc1ncnc2nc[nH]c12` [adenine]?
**A.** inhibition of E. coli tRNA methylases [6]: inhibitory to tRNA methylases isolated from E. coli; inhibition of tRNA methylases (tRNA methylases): gave inhibition that would be acceptable

**Q.** Which “reduction of GSH levels” value (GSH) does the source give for `CCCCS(=N)(=O)CC[C@H](N)C(=O)O` (stereo partly drawn) [L-buthionine-(S,R)-sulfoximine] here?
**A.** effective in reducing GSH levels

**Q.** For `CCCC[S@](=N)(=O)CC[C@H](N)C(=O)O` [L-buthionine-(S)-sulfoximine], which “reduction of GSH levels” value (GSH) is on record?
**A.** effective in reducing GSH levels

**Q.** What does the source list for `CN(Cc1cnc2nc(N)nc(N)c2n1)c1ccc(C(=O)N[C@@H](CCC(=O)O)C(=O)O)cc1` [Methotrexate]?
**A.** SAH metabolism ([11]; cultured cells and patients): affects SAH metabolism; methylation reactions ([11]; low concentrations, in vitro): interfere with specific methylation reactions; inhibition [3]: potently inhibited

**Q.** For `C[C@](N)(CCCN)C(=O)O` [α-methylornithine], which “growth of D. discoideum” value (Dictyostelium discoideum) is on record?
**A.** arrested in four hours

**Q.** With `OC[C@H]1O[C@@H](n2cnc3c2N=CNC[C@H]3O)[C@H](O)[C@@H]1O` [Coformycin] as the compound, how does the ADA inhibition (adenosine deaminase) read?
**A.** potent inhibitors of ADA

**Q.** With `CCCCCC[C@H]([C@H](C)O)n1cnc2c(N)ncnc21` (relative stereo) [erythro-9-(2-hydroxy-3-nonyl)adenine] as the compound, how does the ADA inhibition (adenosine deaminase) read?
**A.** inhibitors of ADA

**Q.** What about the “inhibition of lysosomal ADA” value (lysosomal ADA) of the same compound?
**A.** > 97%

**Q.** With `CN(CCCNN)C[C@H]1O[C@@H](n2cnc3c(N)ncnc32)[C@H](O)[C@@H]1O` [MHZPA, 5'-deoxy-5'-[(3-hydrazinopropyl)methylamino]adenosine] as the compound, how does the SAM-DC inhibition [5] read?
**A.** powerful irreversible inhibitors of SAM-DC

**Q.** With `Nc1ncnc2c1ncn2C[C@@H](O)[C@@H](O)C(=O)O` [D-eritadine] as the compound, how does the “inactivation of SAH” value (SAH in hepatocytes) read?
**A.** inactivate SAH in hepatocytes
